Series [1] in a line: Inhibition of influenza B virus (B/Brisbane/60/2008) neuraminidase using MUNANA substrate pre-incubated for 30 mins before substrate addition by fluorometric assay.
Series [2] can be described thus: Cytotoxicity against MDCK cells. The format is cell-based, Canis lupus familiaris. The settings on record: dog.
Series [3] can be described thus: Selectivity index, ratio of CC50 for MDCK cells to IC50 for influenza A virus (A/Perth/16/2009(H3N2)). The format is functional.

pIC50: −log10 of the molar value.

As a reminder, the pIC50 is the IC50 on a negative log10 scale, so that one unit is a factor of ten. In general, CC50 refers to the concentration at which the toxic effect on the cells reaches its halfway point. Low readings indicate harm at low concentration, high ones better tolerance by the cells.

In turn, `O=c1cc(-c2ccc(O)c(O)c2)oc2cc(O[C@@H]3O[C@H](CO)[C@@H](O)[C@H](O)[C@H]3O)cc(O)c12` [GALUTEOLIN] gave a pIC50 in series [1] of 4.24. In series [2], this compound returned a cytotoxic concentration (CC50) of over 446 µM. Further, the “Ratio CC50/IC50” value in series [3] was over 6.7.
As to `O=c1c(O[C@@H]2O[C@H](CO)[C@H](O)[C@H](O)[C@H]2O)c(-c2ccc(O)c(O)c2)oc2cc(O)cc(O)c12` [HYPEROSIDE], the pIC50 in series [1] was 4.06. Moreover, the CC50 in series [2] was over 431 µM. Moreover, the “Ratio CC50/IC50” value in series [3] is over 6.9.
`O=c1c(O[C@@H]2O[C@H](CO)[C@@H](O)[C@H](O)[C@H]2O)c(-c2ccc(O)c(O)c2)oc2cc(O)cc(O)c12` [ISOQUERCETIN] gave a pIC50 in series [1] of 3.42. The compound further registered a CC50 in series [2] of over 431 µM. In addition, in series [3], the “Ratio CC50/IC50” value is on record as over 1.2.
For the compound `O=c1c(O)c(-c2ccc(O)cc2)oc2cc(O)cc(O)c12` [KAEMPFEROL], in series [1], the pIC50 is 4.04. In series [2], this compound had a CC50 of 581 µM. Further, the “Ratio CC50/IC50” value in series [3] amounted to 6.8.
For `CCOC(=O)C1=C[C@@H](OC(CC)CC)[C@H](NC(C)=O)[C@@H](N)C1` [OSELTAMIVIR], in series [1], the pIC50 is 7.34.
The compound `C[C@@H]1O[C@@H](Oc2c(-c3ccc(O)c(O)c3)oc3cc(O)cc(O)c3c2=O)[C@H](O)[C@H](O)[C@H]1O` [QUERCITRIN] gave a pIC50 in series [1] of 3.95. Further, the CC50 in series [2] is over 446 µM. Besides, the “Ratio CC50/IC50” value in series [3] is recorded as over 4.1.
On to `C[C@@H]1O[C@@H](OC[C@H]2O[C@@H](Oc3c(-c4ccc(O)c(O)c4)oc4cc(O)cc(O)c4c3=O)[C@H](O)[C@@H](O)[C@@H]2O)[C@H](O)[C@H](O)[C@H]1O` [RUTIN], for which, in series [1], the pIC50 was 3.98. In series [2], the CC50 is over 328 µM. For the same compound, in series [3], the “Ratio CC50/IC50” value is on record as over 3.4.

Values taken from ChEMBL document CHEMBL3352453, “Inhibitory potency of flavonoid derivatives on influenza virus neuraminidase” (Bioorg Med Chem Lett, 2014).
